# Tests used:
# HbF [1] = assay: Mean HbF percentage (% HbF) by HPLC in SS patients before and during treatment with hydroxyurea
# HbF [2] = assay: HbF content of each red blood cell by flow cytometry (HbF distribution) during treatment with hydroxyurea
# [3] = 9 SS patients, D15-M3, mean (standard deviation)
# [4] = 9 SS patients, ≥M6, mean (standard deviation)
compound,measurement,setting,value
NC(=O)NO [hydroxyurea],increase of mean HbF percentage (% HbF),"HbF [1]; after 6 months of treatment, SS patients",approximately 3 fold
same,% HbF,"HbF [1]; patient 2, M6",25%
same,% HbF,"HbF [1]; patient 11, M 6",18%
same,% HbF,"HbF [1]; patient 24, M 6",18%
same,% HbF,"HbF [1]; total red blood cells, SS patients, D15-M1 of hydroxyurea, median",4.9%
same,% HbF,"HbF [1]; total red blood cells, SS patients, M3-M4 of hydroxyurea, median",7%
same,% HbF,"HbF [1]; total red blood cells, SS patients, M6 of hydroxyurea, median",10.05%
same,% RBCs with HbF [0; 2[ pg,HbF [2]; [3],65.63 (25.13 % RBCs
same,% RBCs with HbF [2; 4[ pg,HbF [2]; [3],11.32 (6.80 % RBCs
same,% RBCs with HbF [4; 6[ pg,HbF [2]; [3],4.88 (2.90 % RBCs
same,% RBCs with HbF [6; 8[ pg,HbF [2]; [3],3.42 (2.52 % RBCs
same,% RBCs with HbF [8; 10[ pg,HbF [2]; [3],2.65 (2.18 % RBCs
same,% RBCs with HbF [10; 15[ pg,HbF [2]; [3],2.41 (2.73 % RBCs
same,% RBCs with HbF [15; 20[ pg,HbF [2]; [3],4.42 (4.27 % RBCs
same,% RBCs with HbF ≥20 pg,HbF [2]; [3],5.27 (8.56 % RBCs
same,% RBCs with HbF [0; 2[ pg,HbF [2]; [4],53.17 (30.63 % RBCs
same,% RBCs with HbF [2; 4[ pg,HbF [2]; [4],15.05 (10.11 % RBCs
same,% RBCs with HbF [4; 6[ pg,HbF [2]; [4],6.70 (4.39 % RBCs
same,% RBCs with HbF [6; 8[ pg,HbF [2]; [4],3.92 (2.44 % RBCs
same,% RBCs with HbF [8; 10[ pg,HbF [2]; [4],2.72 (1.83 % RBCs
same,% RBCs with HbF [10; 15[ pg,HbF [2]; [4],2.55 (2.57 % RBCs
same,% RBCs with HbF [15; 20[ pg,HbF [2]; [4],4.29 (3.42 % RBCs
same,% RBCs with HbF ≥20 pg,HbF [2]; [4],11.60 (18.64 % RBCs
same,variation of red blood cells with medium-high HbF contents,HbF [2]; D0 to M6,much lower variations
same,change in red blood cells having a very low HbF content,HbF [2]; after 6 months of treatment,decreased greatly
same,increase of red blood cells with HbF content greater than 20 pg,HbF [2]; after 6 months of treatment,up to 3 fold
same,patients in whom HbF follows a homogeneous distribution,"HbF [2]; after 6 months of treatment, heterogeneous before treatment in 8 patients, 9 analyzed",6 patients
same,increase of red blood cells with HbF content greater than 20 g,"HbF [2]; after 6 months of treatment, variation not significant",up to 3 times
same,patients in whom HbF distribution becomes homogeneous,HbF [2]; after ≥M4,5 patients
same,"variation in red blood cells having the lowest HbF contents (0 and 2 pg), given as increase","HbF [2]; between D0 and M6, 9 patients",approximately 25%
same,% RBCs with HbF [0; 2[ pg,"HbF [2]; patient 2, D15-M1",9.21 % RBCs
same,% RBCs with HbF [2; 4[ pg,"HbF [2]; patient 2, D15-M1",14.72 % RBCs
same,% RBCs with HbF [4; 6[ pg,"HbF [2]; patient 2, D15-M1",9.52 % RBCs
same,% RBCs with HbF [6; 8[ pg,"HbF [2]; patient 2, D15-M1",8.47 % RBCs
same,% RBCs with HbF [8; 10[ pg,"HbF [2]; patient 2, D15-M1",7.35 % RBCs
same,% RBCs with HbF [10; 15[ pg,"HbF [2]; patient 2, D15-M1",9.03 % RBCs
same,% RBCs with HbF [15; 20[ pg,"HbF [2]; patient 2, D15-M1",14.27 % RBCs
same,% RBCs with HbF ≥20 pg,"HbF [2]; patient 2, D15-M1",27.43 % RBCs
same,% RBCs with HbF [0; 2[ pg,"HbF [2]; patient 2, M3-M4",5.29 % RBCs
same,% RBCs with HbF [2; 4[ pg,"HbF [2]; patient 2, M3-M4",8.62 % RBCs
same,% RBCs with HbF [4; 6[ pg,"HbF [2]; patient 2, M3-M4",10.61 % RBCs
same,% RBCs with HbF [6; 8[ pg,"HbF [2]; patient 2, M3-M4",10.39 % RBCs
same,% RBCs with HbF [8; 10[ pg,"HbF [2]; patient 2, M3-M4",8.75 % RBCs
same,% RBCs with HbF [10; 15[ pg,"HbF [2]; patient 2, M3-M4",8.50 % RBCs
same,% RBCs with HbF [15; 20[ pg,"HbF [2]; patient 2, M3-M4",14.54 % RBCs
same,% RBCs with HbF ≥20 pg,"HbF [2]; patient 2, M3-M4",33.30 % RBCs
same,change in red blood cells containing HbF content greater than 20 pg,"HbF [2]; patient 2, at M6",clear increase
same,% RBCs with HbF [0; 2[ pg,"HbF [2]; patient 2, ≥M6",4.98 % RBCs
same,% RBCs with HbF [2; 4[ pg,"HbF [2]; patient 2, ≥M6",7.04 % RBCs
same,% RBCs with HbF [4; 6[ pg,"HbF [2]; patient 2, ≥M6",5.53 % RBCs
same,% RBCs with HbF [6; 8[ pg,"HbF [2]; patient 2, ≥M6",4.85 % RBCs
same,% RBCs with HbF [8; 10[ pg,"HbF [2]; patient 2, ≥M6",4.56 % RBCs
same,% RBCs with HbF [10; 15[ pg,"HbF [2]; patient 2, ≥M6",7.48 % RBCs
same,% RBCs with HbF [15; 20[ pg,"HbF [2]; patient 2, ≥M6",9.75 % RBCs
same,% RBCs with HbF ≥20 pg,"HbF [2]; patient 2, ≥M6",55.81 % RBCs
same,% RBCs with HbF [0; 2[ pg,"HbF [2]; patient 11, D15-M1",55.38 % RBCs
same,% RBCs with HbF [2; 4[ pg,"HbF [2]; patient 11, D15-M1",23.31 % RBCs
same,% RBCs with HbF [4; 6[ pg,"HbF [2]; patient 11, D15-M1",6.25 % RBCs
same,% RBCs with HbF [6; 8[ pg,"HbF [2]; patient 11, D15-M1",3.07 % RBCs
same,% RBCs with HbF [8; 10[ pg,"HbF [2]; patient 11, D15-M1",2.55 % RBCs
same,% RBCs with HbF [10; 15[ pg,"HbF [2]; patient 11, D15-M1",2.24 % RBCs
same,% RBCs with HbF [15; 20[ pg,"HbF [2]; patient 11, D15-M1",4.42 % RBCs
same,% RBCs with HbF ≥20 pg,"HbF [2]; patient 11, D15-M1",2.78 % RBCs
same,% RBCs with HbF [0; 2[ pg,"HbF [2]; patient 11, M3-M4",48.83 % RBCs
same,% RBCs with HbF [2; 4[ pg,"HbF [2]; patient 11, M3-M4",31.73 % RBCs
same,% RBCs with HbF [4; 6[ pg,"HbF [2]; patient 11, M3-M4",9.30 % RBCs

# From patent US12345718B2, “Method for determining the haemoglobin content of an erythroid cell” (UNIVERSITÉ PARIS EST CRÉTEIL VAL DE MARNE, priority 2016, dated 2025)
